From the supplement of paper PMC10307832

How the values were obtained:
Assay in all cases: relative viability (nuclei count vs DMSO), 5 days (fraction); higher = more cells survive
[1] = compound: CC[C@H](C)N1C=C(C2=C(C=C(C=C21)C3=CN=C(C=C3)N4CCNCC4)C(=O)NCC5=C(C=C(NC5=O)C)C)C [GSK126] + C[C@]1(O)C[C@@H](c2nc(-c3ccc4ccc(-c5ccccc5)nc4c3)c3c(N)nccn32)C1 [Linsitinib] (partner 1 µM)
Summary of the method: (§1)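 Lung cancer cell lines were seeded in 1536-well plates and dosed by pin tool the next day, with either a single drug or a fixed anchor-drug dose combined with five library-drug doses (not always all listed) spaced in √10 steps. Five days later, one step fixed the cells and stained their nuclei (final 0.05% Triton X-100, 1% formaldehyde, 1 ug/ml Hoechst), and nuclei were counted on 4× images. Relative viability is the nuclei count in treated wells divided by the count in vehicle wells, and each value is the median of duplicate plates.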

[2] = compound: CC[C@H](C)N1C=C(C2=C(C=C(C=C21)C3=CN=C(C=C3)N4CCNCC4)C(=O)NCC5=C(C=C(NC5=O)C)C)C [GSK126] + N=C(N)NC(=N)NCCc1ccccc1 [Phenformin] (partner 250 µM)
Summary of the method: as §1

[3] = compound: C1CC(C1)(C(=O)O)C(=O)O.[NH2-].[NH2-].[Pt+2] [Carboplatin] + O=C(c1cc(Cc2n[nH]c(=O)c3ccccc23)ccc1F)N1CCN(C(=O)C2CC2)CC1 [Olaparib] (partner 8 µM)
Summary of the method: as §1

[4] = compound: C1CC(C1)(C(=O)O)C(=O)O.[NH2-].[NH2-].[Pt+2] [Carboplatin] + Cc1cc(Nc2cc(N3CCN(C)CC3)nc(Sc3ccc(NC(=O)C4CC4)cc3)n2)n[nH]1 [Tozasertib] (partner 0.1 µM)
Summary of the method: as §1

Row | Cell Line | relative viability ([1]; first compound 0.08 µM) | relative viability ([1]; first compound 0.8 µM) | relative viability ([1]; first compound 2.53 µM) | relative viability ([1]; first compound 8 µM) | relative viability ([2]; first compound 0.08 µM) | relative viability ([2]; first compound 0.253 µM) | relative viability ([2]; first compound 0.8 µM) | relative viability ([2]; first compound 2.53 µM) | relative viability ([2]; first compound 8 µM) | relative viability ([3]; first compound 0.08 µM) | relative viability ([3]; first compound 0.253 µM) | relative viability ([3]; first compound 0.8 µM) | relative viability ([3]; first compound 2.53 µM) | relative viability ([3]; first compound 8 µM) | relative viability ([4]; first compound 0.08 µM) | relative viability ([4]; first compound 0.253 µM) | relative viability ([4]; first compound 0.8 µM) | relative viability ([4]; first compound 2.53 µM) | relative viability ([4]; first compound 8 µM) | relative viability ([1]; first compound 0.253 µM)
1 | LCLC-97TM1 | 0.164 | 0.179 | 0.225 | 0.204 | 0.359 | 0.459 | 0.455 | 0.389 | 0.374 | 0.334 | 0.524 | 0.353 | 0.506 | 0.332 | 0.235 | 0.292 | 0.249 | 0.192 | 0.212 | 
2 | NCI-H2405 | 1.02 | 0.876 | 1 | 0.927 | 0.394 | 0.384 | 0.365 | 0.328 | 0.304 | 0.965 | 0.926 | 0.841 | 0.821 | 0.66 | 0.786 | 0.779 | 0.688 | 0.682 | 0.768 | 0.829
3 | NCI-H1915 | 1.2 | 1.14 | 1.17 | 1.16 | 0.412 | 0.374 | 0.404 | 0.359 | 0.371 | 0.253 | 0.257 | 0.225 | 0.22 | 0.21 | 0.494 | 0.455 | 0.411 | 0.364 | 0.331 | 1.08
4 | NCI-H650 | 1.11 | 0.934 | 0.974 | 1.13 | 0.431 | 0.464 | 0.445 | 0.437 | 0.472 | 0.419 | 0.388 | 0.37 | 0.365 | 0.285 | 0.768 | 0.766 | 0.638 | 0.661 | 0.453 | 0.789
5 | NCI-H596 | 1.02 | 1.03 | 1.16 | 1.15 | 0.913 | 0.761 | 0.751 | 0.948 | 0.829 | 0.6 | 0.617 | 0.623 | 0.601 | 0.585 | 0.985 | 0.98 | 0.907 | 0.77 | 0.491 | 0.99
6 | HCC-44 | 0.681 | 0.659 | 0.7 | 0.715 | 0.23 | 0.194 | 0.186 | 0.192 | 0.243 | 1.02 | 0.93 | 0.972 | 0.944 | 0.952 | 1.14 | 0.949 | 0.803 | 0.603 | 0.517 | 0.692
7 | NCI-H2087 | 0.979 | 0.931 | 0.885 | 0.967 | 0.457 | 0.39 | 0.448 | 0.449 | 0.487 | 0.69 | 0.674 | 0.578 | 0.553 | 0.328 | 0.272 | 0.242 | 0.23 | 0.272 | 0.226 | 0.942
8 | RERF-LC-KJ | 0.908 | 0.852 | 0.884 | 0.901 | 0.484 | 0.417 | 0.396 | 0.4 | 0.396 | 1.03 | 0.866 | 0.884 | 0.657 | 0.416 | 0.553 | 0.471 | 0.483 | 0.406 | 0.386 | 0.909
9 | NCI-H2126 | 0.759 | 0.725 | 0.721 | 0.713 | 0.512 | 0.534 | 0.554 | 0.535 | 0.507 | 0.936 | 0.959 | 0.903 | 0.915 | 0.763 | 0.971 | 0.915 | 0.882 | 0.828 | 0.732 | 0.732
10 | NCI-H2228 | 1.11 | 0.755 | 0.708 | 0.542 | 0.43 | 0.295 | 0.376 | 0.337 | 0.365 | 0.927 | 0.514 | 0.553 | 0.645 | 0.436 | 0.276 | 0.252 | 0.246 | 0.225 | 0.209 | 0.681
11 | SK-LU-1 | 1.31 | 1.11 | 1.44 | 1.25 | 0.674 | 0.521 | 0.553 | 0.582 | 0.603 | 0.517 | 0.483 | 0.387 | 0.425 | 0.356 | 0.366 | 0.293 | 0.341 | 0.346 | 0.275 | 1.07
12 | HARA | 1.01 | 0.872 | 0.976 | 0.836 | 0.607 | 0.434 | 0.476 | 0.367 | 0.38 | 0.881 | 0.794 | 0.806 | 0.775 | 0.692 | 0.146 | 0.122 | 0.09 | 0.11 | 0.11 | 0.898
13 | EPLC-272H | 1.4 | 1.06 | 1.17 | 1.23 | 0.318 | 0.264 | 0.361 | 0.34 | 0.301 | 0.857 | 0.777 | 0.798 | 0.73 | 0.527 | 0.314 | 0.387 | 0.181 | 0.289 | 0.291 | 1.16
14 | SK-MES-1 | 1.12 | 0.985 | 0.981 | 1.06 | 0.743 | 0.673 | 0.635 | 0.526 | 0.535 | 0.843 | 0.748 | 0.646 | 0.621 | 0.537 | 0.812 | 0.938 | 0.925 | 0.922 | 0.843 | 1.07
